The values that follow come from patent US7098195B2, “Fluorinated glucosamine analogs useful for modulating post-translational glycosylations on cells” (Health Research, Inc., priority 2001, dated 2006).

Each structure is given as a SMILES string.

Test [1] concerns panel of human tumor cell lines as well as normal endothelial cells. Briefly: Growth inhibition (IC50) of human tumor cell lines and normal endothelial cells. The format is cell-based. Particulars: newly synthesized compounds compared with compounds synthesized by the original method. The text has this:
Before conducting experiments with newly synthesized 3- and 4-F-GlcNAc the effects of 3- and 4-F-GlcNAc on the growth of a panel of human tumor cell lines as well as normal endothelial cells (i.e. IC50 values) were first determined and compared with the original growth inhibitory action (9 Bernacki, R. J. et al. (1977) J. Supra. Stru., 7:235–250; 10 Sharma, M. and W. Korytnyk (1980) Carbohyd. Res., 79:39–51;11 Sharma, M. et al. (1990). Carbohyd. Res., 198:205–22).

The test system of another test is HECA-452 epitopes. Briefly: Flow cytometric analysis of HECA-452 epitopes on human T-lymphocytes. The class given is cell-based. Particulars: for HECA-452 Mean Channel Fluorescence: CLA+ T-cells. How it is done: Only positive cells, which were those cells with fluorescence above background autofluorescence and fluorochrome-conjugated secondary Ab staining, were analyzed.
For analysis of CLA expression on T-cells treated with glycoconjugate modifiers, CLA^+ T-cells were first pretreated with neuraminidase (0.1 U/ml at 37° C. for 1 h) to eliminate functional CLA and cleave all HECA-452 reactive epitopes from the cell surface (35–38). Since we wanted to investigate whether these compounds directly affected CLA expression and function, neuraminidase pretreatment followed by incubations with glycosylation modifiers allowed for examination of de novo synthesized CLA/HECA-452 epitopes re-expressed on the cell surface. After neuraminidase digestion, cells were then incubated with tunicamycin (0.02 mM) (an inhibitor of GlcNAc phosphotransferase, the initial step of N-glycosylation), swainsonine (0.23 mM) (an inhibitor of α-mannosidase II and complex-type N-glycosylation), 4-F-GlcNAc (0.05 mM) (putative inhibitor of poly-N-acetyllactosamine biosynthesis), BAG (an inhibitor of O-glycan biosynthesis) (<2 mM) or GlcNAc (5 mM) (negative control, naturally-occurring metabolic counterpart of 4-F-GlcNAc)for 30 h in the presence of human recombinant IL-2. […] Concentrations for BAG were selected based on maximal O-glycosylation inhibitory effects at non-growth inhibitory concentrations as previously reported (39). To determine a suitable concentration of 4-F-GlcNAc for examining glycoconjugate-modifying effects without influencing cell growth or protein synthesis, we performed preliminary growth inhibitory experiments of cells incubated with 4-F-GlcNAc for 2 cell doublings (˜36 h) at 37° C. (cell viability assessed by Trypan-blue exclusion).
Flow cytometric analysis was performed on human leukocytes utilizing both direct and indirect immunofluorescence staining approaches. All cells utilized for these experiments were washed twice with cold PBS/2%FBS and suspended at 10^7/ml PBS/1% FBS. Primary antibodies, anti-CLA (HECA-452), -CD4, -CD8, CD43 (L60) and PSGL-1 (PL-2) along with the appropriate isotype-matched control antibodies were incubated with the cells for 30 min on ice. Following two washes with PBS/2%FBS, cells were resuspended in PBS/1%FBS and fluorochrome-conjugated secondary antibodies (2 μl) and incubated for 30 min on ice.

Consider `CC(=O)N[C@H]1C(OC(C)=O)O[C@H](COC(C)=O)[C@@H](F)[C@@H]1OC(C)=O` (stereo partly drawn) [4-F-GlcNAc, 2-acetamido-2-deoxy-1,3,6-tri-O-acetyl-4-deoxy-4-fluoro-D-glucopyranose], for which the “IC50 values, growth of tumor cell lines and normal endothelial cells” value in test [1] was “identical to those that were previously described”. The “HECA-452 epitopes on CLA+ T-cells” value in the test with HECA-452 epitopes (0.05, 0.1 or 0.5 mM for 30 hr after neuraminidase) is “marked, concentration-dependent decrease”. Also, the “HECA-452 Mean Channel Fluorescence” value in the test on HECA-452 epitopes (neuraminidase then recovery in 0.05 mM) was 228; in the test on HECA-452 epitopes (neuraminidase then recovery in 0.1 mM), 217; with HECA-452 epitopes (neuraminidase then recovery in 0.5 mM), 62.
